Experiment [1] concerns AECO063 (ATCC25922 bearing an acrAB mutation). Briefly: microbe, parasite or virus in culture. Type of experiment: cell-based, E. coli. The settings on record: Escherichia coli, ATCC25922, read-out: MIC AECO063. Summed up: (§1)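 Inocula prepared from 0.5 McFarland suspensions (final 3×10^5–7×10^5 CFU/mL) were added to 2-fold drug dilution series in cation-adjusted Mueller-Hinton broth. Plates stood 18-24 hours at 35° C. under ambient air.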

For the next experiment, the system named is APAE001 (ATCC27853). In words: MIC broth microdilution, APAE001. The format is cell-based, P. aeruginosa. As to conditions: Pseudomonas aeruginosa, ATCC27853, read-out: MIC APAE001, APAE001 (ATCC27853). The procedure, abridged:
as §1
Background: Broth dilution looks for growth in wells or tubes with falling amounts of substance.

The test system of another experiment is AECO001 (ATCC25922). In words: MIC broth microdilution, AECO001. The format is cell-based, E. coli. As to conditions: for MIC: Escherichia coli; for Ratio of MICs on AECO001 [Cpd (A = —CHCH3NH2)/Cpd (A = —C(CH3)2NH2)]: MIC of paired compound with A = —CHCH3NH2 divided by MIC of compound with A = —C(CH3)2NH2, n=2 data, pairs identical except for the A moiety. The procedure, abridged:
as §1

Experiment [2] relates to ASAU001 (laboratory strain of S. aureus, ATCC29213). In words: MIC broth microdilution, ASAU001. The settings on record: Staphylococcus aureus, ATCC29213, read-out: MIC ASAU001. Type of experiment: cell-based. The procedure, abridged:
as §1

The subject of experiment [3] is APAE006 (strain of P. aeruginosa in which all efflux pumps are inactivated). In words: microbe, parasite or virus in culture. Type of experiment: cell-based. The settings on record: Pseudomonas aeruginosa, read-out: MIC APAE006, APAE006, all efflux pumps inactivated. The procedure, abridged:
(§2)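 Strains were grown overnight at 35° C. on Mueller-Hinton agar, suspended to 0.5 McFarland and diluted to a final 3×10^5–7×10^5 CFU/mL. They were then exposed to 2-fold serial drug dilutions in cation-adjusted Mueller-Hinton broth and incubated 18-24 hours at 35° C.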

In experiment [4] the test system is APAE006 in the presence of 8 micrograms per milliliter of polymyxin B nonapeptide. Type of experiment: cell-based, P. aeruginosa. The settings on record: APAE006 with 8 micrograms per milliliter polymyxin B nonapeptide. Summed up:
as §2

In experiment [5] the test system is AABA1060 (clinical isolate of Acinetobacter baumannii). Briefly: MIC broth microdilution, AABA1060. The format is cell-based. As to conditions: Acinetobacter baumannii, read-out: MIC AABA1060. The procedure, abridged: as §1
The mark [6] stands for this setting: ATCC25922, read-out: MIC AECO001.
Where [7] appears, read: ATCC25922, read-out: MIC AECO001 HSA AGP.

Converted amounts (≈) assume the structure as drawn. Like-named read-outs stand apart in the source and are kept apart here.

As for `CC(C)(N)[C@H](NC(=O)c1ccc(C#CC#CC2CCC2)cc1)C(=O)NO` [Example 91-16], the MIC is < 2 µg/mL in experiment [1]; < 2 µg/mL in the experiment on APAE001 (ATCC27853); < 2 µg/mL in the experiment with AECO001 (ATCC25922) (setting [6]); < 2 µg/mL in the experiment with AECO001 (ATCC25922) (setting [7]); 2 to 16 µg/mL (≈ 5.66 to 45.3 µM) in experiment [2]; < 2 µg/mL in experiment [3]. In addition, in experiment [5], the MIC was < 2 µg/mL. Besides, the “Ratio of MICs on AECO001 [Cpd (A = —CHCH3NH2)/Cpd (A = —C(CH3)2NH2)]” value in the experiment with AECO001 (ATCC25922) turned out to be 2.6. Besides, the “MIC APAE006 + PMBN” value in experiment [4] is listed as “A (MIC's of 2.0 μg/mL or less = A)”.

With `CC(C)OCc1ccc(C#Cc2ccc(C(=O)N[C@H](C(=O)NO)[C@@H](C)N)cc2)cc1` [Example 124-2], the MIC in experiment [1] was < 2 µg/mL; in the experiment on APAE001 (ATCC27853) it was 2 to 16 µg/mL (≈ 4.88 to 39.1 µM); with AECO001 (ATCC25922) (setting [6]), < 2 µg/mL; in the experiment with AECO001 (ATCC25922) (setting [7]) it was 2 to 16 µg/mL (≈ 4.88 to 39.1 µM); in experiment [2], 16 to 64 µg/mL (≈ 39.1 to 156 µM); in experiment [3], < 2 µg/mL. Moreover, the MIC in experiment [5] lay in the range of 2 to 16 µg/mL (≈ 4.88 to 39.1 µM). Moreover, the “MIC APAE006 + PMBN” value in experiment [4] was “A (MIC's of 2.0 μg/mL or less = A)”.

In the case of `C[C@@H](N)[C@H](NC(=O)c1ccc(C#CC#CC(C)(C)O)cc1)C(=O)NO` [Example 91-30], the MIC in experiment [1] is 2 to 16 µg/mL (≈ 5.82 to 46.6 µM); in the experiment on APAE001 (ATCC27853), < 2 µg/mL; with AECO001 (ATCC25922) (setting [6]), 16 to 64 µg/mL (≈ 46.6 to 186 µM); with AECO001 (ATCC25922) (setting [7]) it was 16 to 64 µg/mL (≈ 46.6 to 186 µM); in experiment [2] it was 16 to 64 µg/mL (≈ 46.6 to 186 µM); in experiment [3], < 2 µg/mL. Besides, the MIC in experiment [5] fell in the range of 16 to 64 µg/mL (≈ 46.6 to 186 µM). The “MIC APAE006 + PMBN” value in experiment [4] was “A (MIC's of 2.0 μg/mL or less = A)”.

Consider `CCOCc1ccc(C#CC#Cc2ccc(C(=O)N[C@H](C(=O)NO)C(C)(C)O)cc2)cc1` [Example 82-21], for which the MIC was < 2 µg/mL in experiment [1]; 2 to 16 µg/mL (≈ 4.6 to 36.8 µM) in the experiment with APAE001 (ATCC27853); < 2 µg/mL in the experiment on AECO001 (ATCC25922) (setting [6]); 2 to 16 µg/mL (≈ 4.6 to 36.8 µM) in the experiment with AECO001 (ATCC25922) (setting [7]); 16 to 64 µg/mL (≈ 36.8 to 147 µM) in experiment [2]; < 2 µg/mL in experiment [3]. For the same compound, the MIC in experiment [5] is < 2 µg/mL. Further, the “MIC APAE006 + PMBN” value in experiment [4] is reported as “A (MIC's of 2.0 μg/mL or less = A)”.

Take `CC(C)(N)[C@H](NC(=O)c1ccc(C#Cc2ccc(CNCCF)cc2)cc1)C(=O)NO` [Example 122-6]: the MIC in experiment [1] was < 2 µg/mL; in the experiment with APAE001 (ATCC27853) it was < 2 µg/mL; with AECO001 (ATCC25922) (setting [6]), < 2 µg/mL; with AECO001 (ATCC25922) (setting [7]), < 2 µg/mL; in experiment [2], 16 to 64 µg/mL (≈ 37.5 to 150 µM); in experiment [3] it was < 2 µg/mL. Moreover, the MIC in experiment [5] lay in the range of 2 to 16 µg/mL (≈ 4.69 to 37.5 µM). The “Ratio of MICs on AECO001 [Cpd (A = —CHCH3NH2)/Cpd (A = —C(CH3)2NH2)]” value in the experiment on AECO001 (ATCC25922) is on record as 2.1. Further, the “MIC APAE006 + PMBN” value in experiment [4] is recorded as “A (MIC's of 2.0 μg/mL or less = A)”.

As for `C[C@@H](N)[C@H](NC(=O)c1ccc(C#CC#Cc2ccc(NS(C)(=O)=O)cc2)cc1)C(=O)NO` [Example 93-1, N-((2S,3R)-3-amino-1-(hydroxyamino)-1-oxobutan-2-yl)-4-((4-(methylsulfonamido)phenyl)buta-1,3-diynyl)benzamide], the MIC in experiment [1] was < 2 µg/mL; with APAE001 (ATCC27853) it was < 2 µg/mL; in the experiment with AECO001 (ATCC25922) (setting [6]), < 2 µg/mL; with AECO001 (ATCC25922) (setting [7]) it was 16 to 64 µg/mL (≈ 35.2 to 141 µM); in experiment [2] it was 16 to 64 µg/mL (≈ 35.2 to 141 µM); in experiment [3], < 2 µg/mL. The MIC in experiment [5] is < 2 µg/mL. Moreover, the “MIC APAE006 + PMBN” value in experiment [4] is on record as “A (MIC's of 2.0 μg/mL or less = A)”.

Regarding `CC(C)(O)[C@H](NC(=O)c1ccc(C#CC#Cc2ccc(CN3CCOCC3)cc2)cc1)C(=O)NO` [Example 86-4], the MIC in experiment [1] was < 2 µg/mL; with APAE001 (ATCC27853) it was 2 to 16 µg/mL (≈ 4.21 to 33.6 µM); with AECO001 (ATCC25922) (setting [6]), < 2 µg/mL; in the experiment on AECO001 (ATCC25922) (setting [7]), 2 to 16 µg/mL (≈ 4.21 to 33.6 µM); in experiment [2], 16 to 64 µg/mL (≈ 33.6 to 135 µM); in experiment [3], < 2 µg/mL. Moreover, the MIC in experiment [5] fell in the range of 2 to 16 µg/mL (≈ 4.21 to 33.6 µM). The “MIC APAE006 + PMBN” value in experiment [4] is “A (MIC's of 2.0 μg/mL or less = A)”.

Take `CC(C)(N)[C@H](NC(=O)c1ccc(C#CC#CC2CCNCC2)cc1)C(=O)NO` [Example 137-23]: the MIC was 16 to 64 µg/mL (≈ 41.8 to 167 µM) in experiment [1]; 2 to 16 µg/mL (≈ 5.23 to 41.8 µM) in the experiment with APAE001 (ATCC27853); 16 to 64 µg/mL (≈ 41.8 to 167 µM) in the experiment with AECO001 (ATCC25922) (setting [6]); 16 to 64 µg/mL (≈ 41.8 to 167 µM) in the experiment with AECO001 (ATCC25922) (setting [7]); 16 to 64 µg/mL (≈ 41.8 to 167 µM) in experiment [2]; < 2 µg/mL in experiment [3]. In experiment [5], the MIC fell in the range of 16 to 64 µg/mL (≈ 41.8 to 167 µM). In addition, the “MIC APAE006 + PMBN” value in experiment [4] is given as “B (MIC's of greater than 2.0 μg/mL to 16.0 μg/mL = B)”.

As for `C[C@@H](O)[C@H](NC(=O)c1ccc(C#C/C=C/C2CC2)cc1)C(=O)NO` [Example 107-3], the MIC in experiment [1] is < 2 µg/mL; in the experiment with APAE001 (ATCC27853), < 2 µg/mL; in the experiment on AECO001 (ATCC25922) (setting [6]), < 2 µg/mL; in the experiment with AECO001 (ATCC25922) (setting [7]) it was 2 to 16 µg/mL (≈ 6.09 to 48.7 µM); in experiment [2], 16 to 64 µg/mL (≈ 48.7 to 195 µM); in experiment [3], < 2 µg/mL. Also, the MIC in experiment [5] lay within 2 to 16 µg/mL (≈ 6.09 to 48.7 µM). In addition, the “MIC APAE006 + PMBN” value in experiment [4] was “A (MIC's of 2.0 μg/mL or less = A)”.

These data come from patent US9617256B2 (priority 2007, dated 2017).
